Values after ≈ are worked out from the molar mass of the structure shown.
Assays:
Acetylcholinesterase = molecular target: T1, Acetylcholinesterase (Bos taurus, UniProt P23795); experiment: Inhibition of bovine AChE using ACH iodide as substrate preincubated for 60 mins followed by substrate addition and measured after 1 hrs by spectrophotometeric analysis
T1 sequence (P23795 whole entry): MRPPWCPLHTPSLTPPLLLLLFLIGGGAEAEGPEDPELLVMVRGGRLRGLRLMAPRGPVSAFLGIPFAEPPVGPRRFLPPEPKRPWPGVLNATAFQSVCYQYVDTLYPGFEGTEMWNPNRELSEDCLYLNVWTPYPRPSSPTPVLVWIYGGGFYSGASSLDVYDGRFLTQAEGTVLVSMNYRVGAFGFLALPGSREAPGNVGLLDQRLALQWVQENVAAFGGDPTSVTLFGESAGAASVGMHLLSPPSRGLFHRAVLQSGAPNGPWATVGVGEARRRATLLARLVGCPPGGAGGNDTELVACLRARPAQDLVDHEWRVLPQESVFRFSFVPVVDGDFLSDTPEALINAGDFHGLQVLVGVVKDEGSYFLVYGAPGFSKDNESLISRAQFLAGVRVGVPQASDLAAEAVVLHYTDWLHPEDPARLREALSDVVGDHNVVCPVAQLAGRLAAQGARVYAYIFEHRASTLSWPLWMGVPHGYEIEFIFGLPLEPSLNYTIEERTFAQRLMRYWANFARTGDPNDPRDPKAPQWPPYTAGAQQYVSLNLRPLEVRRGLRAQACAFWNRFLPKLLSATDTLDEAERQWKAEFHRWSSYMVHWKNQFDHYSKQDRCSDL

Rattus norvegicus = organism: Rattus norvegicus; experiment: Analgesic activity in rat assessed as inhibition of acetic acid-induced writhing; type: functional
Hepatitis C virus = experiment: Antiviral activity against HCV replicon after 3 days by RT-PCR analysis; type: functional, organism-based, Hepacivirus hominis; details: 72 h
Staphylococcus aureus = experiment: Antimicrobial activity against Staphylococcus aureus; type: functional
Escherichia coli = experiment: Antimicrobial activity against Escherichia coli; type: functional
[1] = molecular target: T2, RNA-directed RNA polymerase (Hepacivirus hominis, UniProt O39930); experiment: Inhibition of HCV genotype 1b NS5B RNA dependent RNA polymerase expressed in Escherichia coli BL21 (DE3) using biotinylated oligo-dT12 primer as substrate after 60 mins; parameters: species or system Hepatitis C virus subtype 1b
[2] = molecular target: Sodium channel protein type 9 subunit alpha (Rattus norvegicus, UniProt O08562); experiment: Inhibition of Nav1.7 in rat dorsal root ganglions at -60 mV holding potential by patch clamp assay
[3] = molecular target: T2, RNA-directed RNA polymerase; experiment: Inhibition of HCV NS5B RNA dependent RNA polymerase
[4] = molecular target: Methionine aminopeptidase 2 (Homo sapiens, UniProt P50579); experiment: Inhibition of human recombinant MetAP2 expressed in Sf9 insect cells using MAS as substrate after 30 mins by fluorometeric analysis
Staphylococcus = experiment: Antimicrobial activity against Staphylococcus; type: functional
[5] = Inhibition of [33P]-ATP binding to Escherichia coli NR2 after 15 mins by liquid scintillation analysis

T2 sequence (O39930 whole entry): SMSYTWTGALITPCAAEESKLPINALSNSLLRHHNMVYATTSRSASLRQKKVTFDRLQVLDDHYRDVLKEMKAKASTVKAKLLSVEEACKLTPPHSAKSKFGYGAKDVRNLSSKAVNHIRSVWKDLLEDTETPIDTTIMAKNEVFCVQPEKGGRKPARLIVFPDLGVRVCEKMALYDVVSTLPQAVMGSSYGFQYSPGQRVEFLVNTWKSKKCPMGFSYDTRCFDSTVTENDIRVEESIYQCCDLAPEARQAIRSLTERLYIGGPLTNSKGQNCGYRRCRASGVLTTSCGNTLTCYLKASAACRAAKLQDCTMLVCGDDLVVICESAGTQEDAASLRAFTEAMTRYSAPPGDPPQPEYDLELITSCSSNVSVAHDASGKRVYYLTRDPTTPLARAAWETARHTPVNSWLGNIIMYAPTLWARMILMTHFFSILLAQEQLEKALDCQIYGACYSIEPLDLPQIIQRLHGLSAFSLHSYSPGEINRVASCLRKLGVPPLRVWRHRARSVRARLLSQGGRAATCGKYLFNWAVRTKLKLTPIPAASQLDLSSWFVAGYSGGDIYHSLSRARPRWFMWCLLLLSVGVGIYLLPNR
Chain of Methionine aminopeptidase 2 (P50579 whole entry): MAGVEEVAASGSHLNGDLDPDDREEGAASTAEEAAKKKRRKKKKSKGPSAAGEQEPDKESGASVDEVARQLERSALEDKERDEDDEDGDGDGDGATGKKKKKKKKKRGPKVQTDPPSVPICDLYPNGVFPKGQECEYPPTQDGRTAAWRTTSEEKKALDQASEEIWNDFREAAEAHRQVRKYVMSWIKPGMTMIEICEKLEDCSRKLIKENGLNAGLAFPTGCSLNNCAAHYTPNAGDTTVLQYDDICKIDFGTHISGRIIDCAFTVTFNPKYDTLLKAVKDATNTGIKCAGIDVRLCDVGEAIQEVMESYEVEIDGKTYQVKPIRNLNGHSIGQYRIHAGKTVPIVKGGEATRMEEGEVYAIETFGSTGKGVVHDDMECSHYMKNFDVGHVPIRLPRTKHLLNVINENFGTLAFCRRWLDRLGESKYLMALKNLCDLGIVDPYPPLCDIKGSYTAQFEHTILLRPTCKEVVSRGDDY
Chain of Sodium channel protein type 9 subunit alpha (O08562 whole entry): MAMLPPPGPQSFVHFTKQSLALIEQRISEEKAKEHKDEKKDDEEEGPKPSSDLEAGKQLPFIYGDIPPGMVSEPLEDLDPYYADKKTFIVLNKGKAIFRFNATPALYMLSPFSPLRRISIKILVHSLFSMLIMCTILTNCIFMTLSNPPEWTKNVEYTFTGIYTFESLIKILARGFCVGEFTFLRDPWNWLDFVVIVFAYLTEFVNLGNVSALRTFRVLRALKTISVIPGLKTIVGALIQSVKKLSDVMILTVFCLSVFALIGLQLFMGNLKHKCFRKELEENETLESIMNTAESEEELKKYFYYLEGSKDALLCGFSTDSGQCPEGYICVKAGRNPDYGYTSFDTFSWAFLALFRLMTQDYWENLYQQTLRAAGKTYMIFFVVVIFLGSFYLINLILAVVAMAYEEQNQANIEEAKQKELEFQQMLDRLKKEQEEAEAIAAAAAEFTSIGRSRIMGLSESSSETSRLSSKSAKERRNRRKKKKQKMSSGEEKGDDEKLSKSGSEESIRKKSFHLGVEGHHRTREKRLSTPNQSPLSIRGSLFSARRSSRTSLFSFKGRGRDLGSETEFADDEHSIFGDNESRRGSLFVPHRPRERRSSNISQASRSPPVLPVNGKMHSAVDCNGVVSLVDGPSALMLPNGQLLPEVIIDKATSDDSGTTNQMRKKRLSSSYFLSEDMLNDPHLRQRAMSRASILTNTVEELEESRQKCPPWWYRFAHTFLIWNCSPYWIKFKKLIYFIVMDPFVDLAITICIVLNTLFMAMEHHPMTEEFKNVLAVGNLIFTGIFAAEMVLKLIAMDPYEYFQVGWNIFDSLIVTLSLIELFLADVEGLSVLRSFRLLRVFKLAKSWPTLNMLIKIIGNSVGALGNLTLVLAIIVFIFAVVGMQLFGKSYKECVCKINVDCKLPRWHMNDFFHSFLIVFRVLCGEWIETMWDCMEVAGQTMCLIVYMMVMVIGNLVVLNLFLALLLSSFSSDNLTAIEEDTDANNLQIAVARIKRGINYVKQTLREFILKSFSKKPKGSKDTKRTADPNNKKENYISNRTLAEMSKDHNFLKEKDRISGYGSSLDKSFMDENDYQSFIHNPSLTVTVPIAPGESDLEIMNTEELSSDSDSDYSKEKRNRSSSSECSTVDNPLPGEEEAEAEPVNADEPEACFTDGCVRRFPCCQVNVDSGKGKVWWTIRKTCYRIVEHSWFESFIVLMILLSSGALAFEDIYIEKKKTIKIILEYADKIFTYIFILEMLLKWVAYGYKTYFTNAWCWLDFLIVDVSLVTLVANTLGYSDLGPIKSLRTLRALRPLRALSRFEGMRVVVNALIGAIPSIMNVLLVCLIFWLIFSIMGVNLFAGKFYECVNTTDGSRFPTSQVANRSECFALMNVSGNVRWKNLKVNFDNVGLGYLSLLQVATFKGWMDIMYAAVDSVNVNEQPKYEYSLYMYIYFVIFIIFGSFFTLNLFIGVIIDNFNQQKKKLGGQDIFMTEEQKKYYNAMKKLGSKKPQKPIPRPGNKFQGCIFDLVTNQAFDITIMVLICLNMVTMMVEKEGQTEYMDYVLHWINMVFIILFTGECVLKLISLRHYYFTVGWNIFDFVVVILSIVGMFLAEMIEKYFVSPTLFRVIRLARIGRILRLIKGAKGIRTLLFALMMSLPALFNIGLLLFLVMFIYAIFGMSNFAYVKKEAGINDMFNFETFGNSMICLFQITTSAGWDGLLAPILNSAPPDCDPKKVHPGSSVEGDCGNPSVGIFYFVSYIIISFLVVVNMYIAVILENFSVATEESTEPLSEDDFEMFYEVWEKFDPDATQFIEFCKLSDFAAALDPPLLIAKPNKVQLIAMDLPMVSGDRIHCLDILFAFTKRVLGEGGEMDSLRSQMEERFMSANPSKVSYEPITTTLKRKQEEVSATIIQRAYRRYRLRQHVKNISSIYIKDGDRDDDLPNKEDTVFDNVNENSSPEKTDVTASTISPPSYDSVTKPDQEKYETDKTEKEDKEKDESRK

## CC(=O)OC12C=CC(=O)N1c1ccccc1C(=O)O2 (stereo unspecified)
Acetylcholinesterase
  Ki: 4700 nM

## Cc1c(C(=O)c2ccc3ncccc3c2)c2cccc3c2n1C(CN1CCOCC1)CO3 (stereo unspecified)
Rattus norvegicus
  ED50: 3.5 mg/kg

## COC(=O)NC(C(=O)N1CCCC1c1ncc(-c2ccc3c(c2)-n2ccc4cc(-c5cnc(C6CCCN6C(=O)C(NC(=O)OC)C(C)C)[nH]5)cc(c42)O3)[nH]1)C(C)C (stereo unspecified)
Hepatitis C virus
  EC50: 0.01 nM

## CCCc1c(O)cc2oc3cccn3c(=O)c2c1O
Staphylococcus aureus
  MIC: 2 µg/mL (≈ 7.71 µM)
Escherichia coli
  MIC: 2 µg/mL (≈ 7.71 µM)

## CN(C)S(=O)(=O)NC(=O)c1ccc2c(C3CCCCC3)c(-c3ccccc3)n3c2c1OCC3
[1]
  IC50: < 10000 nM

## COc1c(O)cccc1C(=O)N1CCC2(CC1)Oc1ccccc1-n1c(C#N)ccc12
[2]
  IC50: < 2000 nM

## COC(=O)NC(C(=O)N1CCCC1c1ncc(-c2ccc3c(c2)OCn2c-3c(F)c3cc(-c4cnc(C5CCCN5C(=O)C(NC(=O)OC)C(C)C)[nH]4)ccc32)[nH]1)C(C)C (stereo unspecified)
[3]
  IC50: 0.001 nM

## CCN(CC)C/C=C\c1cc(F)ccc1S(=O)(=O)Nc1ccc2c(c1C(=O)O)OCc1cccn1-2
[4]
  IC50: < 50 nM

## CCCc1c(O)cc2oc3cc(Cl)cn3c(=O)c2c1O
Staphylococcus
  MIC: 0.2 to 0.78 µg/mL (≈ 0.681 to 2.66 µM)
[5]
  IC50: 20000 nM
